Test results as given in patent US11279761B2, “Anti-PD-L1 combinations for treating tumors” (BIRDIE BIOPHARMACEUTICALS, INC., priority 2014, dated 2022).

How the values were obtained:
[1] = test system: mouse colon adenocarcinoma 26 (C26) tumor; assay: Combinational efficacy of R848 and anti-PD-1 antibody in PD-L1 expressed C26 tumor model; format: in vivo; settings: C26 s.c. in BALB/c mice; single agent, three-week period
Protocol: The objective of this study was to determine the single or combinational efficacy of R848 and anti-PD-1 monoclonal antibody in the mouse colon adenocarcinoma 26 (C26) tumor model in immune-competent mouse. C26 cells were inoculated by subcutaneous injection into the right flank of BALB/c mice on Day 0. Tumors were monitored until they reached a mean tumor volume of between 60 and 100 mm3. Mice were then administered over a three-week period 10 mg/kg IV (via tail vein) of rat anti-mouse PD-1 monoclonal antibody alone twice weekly, 0.08 mg/kg of R848 alone once weekly, or a combination of anti-PD-1 antibody and R848. Tumor volumes were recorded twice weekly over the course of the study and the mice were observed regularly. Tumor-bearing mice (treatment, control) were sacrificed at Day 26 or if they became moribund before the tumor volume reached 2000 mm3. […] The differences in tumor inhibition by the combination treatment compared to that of each component is shown graphically (FIG. 5) and was highly significant (p=0.0002, anti-PD-1 and R848 combined versus R848 alone; p=0.0063 anti-PD-1 and R848 combined versus anti-PD-1 alone).

C26 tumor = assay: Combinational efficacy of anti-PD-L1 and R848 in PD-L1 expressed C26 tumor model (Study No. R-BDB001-0008); format: in vivo; settings: C26 s.c. in BALB/c mice; single agent, 3-week period
Protocol: The objective of this study was to determine the single or combinational efficacy of R848 and anti-PD-L1 monoclonal antibody in the C26 tumor model in immune-competent mouse. C26 cells were inoculated by subcutaneous injection into the right flank of BALB/c mice on Day 0. Tumors were monitored until they reached a mean tumor volume of between 60 and 100 mm3, inclusive. Mice were administered, over a 3-week period, 10 mg/kg IV (via tail vein) of rat anti-mouse PD-L1 monoclonal antibody alone twice weekly, 0.08 mg/kg of R848 alone once weekly, or a combination of anti-PD-L1 antibody and R848.
The differences in tumor inhibition by the combination treatment compared to that of each component is shown graphically (FIG. 6)) and was highly significant (p=0.0029, anti-PDL1 and R848 combined versus R848 alone; p=0.0074, anti-PDL1 and R848 combined versus anti-PDL1 alone).

CCOCc1nc2c(N)nc3ccccc3c2n1CC(C)(C)O [R848, 4-amino-2-(ethoxymethyl)-a,a-di-methyl-1H-imidazo[4,5-c]quinoline-1-ethanol]
inhibition in tumor growth [1]: Limited inhibition | inhibition in tumor growth (C26 tumor): Limited inhibition
